Read-outs that look alike come from different tables or passages of the source.

From patent US10519177B2, “Heterocyclic compounds and uses thereof” (Plexxikon Inc., priority 2013, dated 2019) come the findings set out here.

The test system of one assay is bromodomain. Nature of the assay: at least one of the bromodomain cell assays of Example 57. It counts as cell-based. To be noted: read-out: IC50 in at least one of the bromodomain cell assays.
In a further assay the test system is MV-4-11 cells. Description: Oncology cell growth assay MV-4-11 (CellTiter Glo). It counts as cell-based. From the text: Published bromodomain inhibitors JQ1 and iBET 151 have shown activity in variety of cancer cells such leukemia and lymphoma, multiple myeloma cells, NUT midline carcinoma and glioblastoma cells (Dawson M A et al. 2011; Delmore J E 2011; Chen Z et al. 2013; Filippakopoulos P et al. 2010; Mertz J A et al. 2011; Ott C J et al. 2012). In this study, we test compounds in different cancer cell lines. MV-4-11 and MOLM-13 are AML cell lines harboring a MLL-AF4 and MLL-AF9 translocation, respectively. MM.1S is a multiple myeloma cell line. SK-N-AS, IMR-32 and SK-N-BE(2) are neuroblastoma cell lines. IMR-32 and SK-N-BE(2) cell lines harbor MYCN amplifications.
MV-4-11, MM.1S, IMR-32, SK-N-AS and SK-N-BE(2) were obtained from ATCC (IL, USA) and MOLM-13 were purchased from DSMZ (Braunschweig, German). Cells are cultured as recommended by their sources. For growth inhibition studies 3000 cells are seeded in wells of a 96-well plate in 75 μL of culture media. After several hours, growth media containing compounds of formula (I) are added to the wells. Compound at a maximal concentration of 5 mM was serially diluted 1:3 for a total of 8 point titration with DMSO as a control. A 1 μL aliquot of each dilution point is added to 249 μL growth media and 75 μL is added to each well containing cells, providing 10 μM compound at the maximum concentration point. The final concentration of DMSO in all wells is 0.2%. Cells are incubated for 72 hours, and 25 μL of CellTiter Glo Reagent (Promega GA, USA) is added to each well. Plates are shaken for approximately 10 minutes and chemiluminescent signal is read on Tecan microplate reader. The measured luminescence correlates directly with cell number.
All data is normalized to the mean of eight DMSO high control wells on each plate. A four parameter curve fit of the following formula was then applied: Y=a+(b−a)/(1+(x/c)^d) Where ‘a’ is the minimum, ‘b’ is the maximum, ‘c’ is the pIC50 and ‘d’ is the Hill slope. […] Myc Reporter Assay

Setting [1] is: at least one of the bromodomain cell assays described in Example 57.
Where [2] appears, read: Homo sapiens, MV4-11, 72 h; read-out: Cell activity (IC50 μM) MV-4-11 3d-Growth.
The mark [3] stands for this setting: Homo sapiens, MV4-11, 72 h, read-out: Cell activity (IC50 μM) MV-4-11 3d-Growth.
The mark [4] stands for this setting: Homo sapiens, MV4-11, 72 h; MV-4-11, 3d growth; read-out: Cell activity (IC50 μM) MV-4-11 3d-Growth.

In the case of `Cc1noc(C)c1-c1cnc2c(-c3cnn(C)c3)cn(C(=O)C3CCC(F)(F)CC3)c2c1` [P-0208], the figures for the half-maximal inhibitory concentration (IC50) in the assay on bromodomain (setting [1]) and in the assay on MV-4-11 cells (MV-4-11 3d-Growth; read-out: Cell activity (IC50 μM) MV-4-11 3d-Growth) were less than 10 µM and 1 to 10 µM, respectively. With `[2H]C([2H])(C1CCC(F)(F)CC1)n1cc(-c2cnn(CC(F)(F)F)c2)c2ncc(-c3c(C)noc3C)cc21` [P-0221, 4-[1-[dideuterio-(4,4-difluorocyclohexyl)methyl]-3-[1-(2,2,2-trifluoroethyl)pyrazol-4-yl]pyrrolo[3,2-b]pyridin-6-yl]-3,5-dimethyl-isoxazole], the IC50 in the assay with bromodomain (setting [1]) was less than 10 µM; with MV-4-11 cells (setting [2]), less than 1 µM.

As for `COc1ccc(-c2cnc3c(-c4cnn(C(F)F)c4)cn(CC4CCC(F)(F)CC4)c3c2)cn1` [P-0358, 1-[(4,4-difluorocyclohexyl)methyl]-3-[1-(difluoromethyl)pyrazol-4-yl]-6-(6-methoxy-3-pyridyl)pyrrolo[3,2-b]pyridine], the IC50 in the assay with bromodomain (setting [1]) was less than 10 µM; with MV-4-11 cells (setting [2]) it was 10 to 200 µM. Consider `CNC(=O)c1ccc(-c2cnc3ccn(CC4CCC(F)(F)CC4)c3c2)cn1` [P-0359, 5-[1-[(4,4-difluorocyclohexyl)methyl]pyrrolo[3,2-b]pyridin-6-yl]-N-methyl-pyridine-2-carboxamide], for which the IC50 was less than 10 µM in the assay with bromodomain (setting [1]) and 10 to 200 µM with MV-4-11 cells (setting [2]). With `Cc1noc(C)c1-c1cnc2c(-c3ccc(C(=O)O)cc3)cn(C(C)c3ccccn3)c2c1` (centres unmarked) [P-0369, 4-[6-(3,5-dimethylisoxazol-4-yl)-1-[1-(2-pyridyl)ethyl]pyrrolo[3,2-b]pyridin-3-yl]benzoic acid], the IC50 was less than 10 µM with bromodomain and less than 1 µM in the assay with MV-4-11 cells (setting [3]).

Take `Cc1noc(C)c1-c1cnc2c(-c3ccc(C(=O)O)cc3)cn([C@H](C)c3ccccn3)c2c1` [P-0510, 4-[6-(3,5-dimethylisoxazol-4-yl)-1-[(1R)-1-(2-pyridyl)ethyl]pyrrolo[3,2-b]pyridin-3-yl]benzoic acid]: the IC50 in the assay with bromodomain was less than 10 µM; with MV-4-11 cells (setting [3]), less than 1 µM. The matching figures for `Cc1noc(C)c1-c1cnc2c(-c3ccc(C(=O)O)cc3)cn([C@@H](C)c3ccccn3)c2c1` [P-0511, 4-[6-(3,5-dimethylisoxazol-4-yl)-1-[(1S)-1-(2-pyridyl)ethyl]pyrrolo[3,2-b]pyridin-3-yl]benzoic acid]: less than 10 µM and less than 1 µM. As to `Cc1noc(C)c1-c1cnc2c(-c3ccc(C(=O)O)cc3)cn(CC3CC4(CCC4)C3)c2c1` [P-0603, 4-[6-(3,5-dimethylisoxazol-4-yl)-1-(spiro[3.3]heptan-6-ylmethyl)pyrrolo[3,2-b]pyridin-3-yl]benzoic acid], the IC50 in the assay with bromodomain (setting [1]) is less than 10 µM; in the assay on MV-4-11 cells (setting [4]) it was less than 1 µM. The matching figures for `[2H]c1c([2H])c([2H])c(C([2H])(n2cc(-c3ccc(C(=O)OC)cc3)c3ncc(-c4c(C)noc4C)cc32)C([2H])([2H])[2H])c([2H])c1[2H]` (centres unmarked) [P-0605, methyl 4-[6-(3,5-dimethylisoxazol-4-yl)-1-[1,2,2,2-tetradideuterio-1-(2,3,4,5,6-pentadeuteriophenyl)ethyl]pyrrolo[3,2-b]pyridin-3-yl]benzoate]: less than 10 µM and less than 1 µM. The corresponding values for `[2H]c1c([2H])c([2H])c(C([2H])(n2cc(-c3cnn(CC(F)(F)F)c3)c3ncc(-c4c(C)noc4C)cc32)C([2H])([2H])[2H])c([2H])c1[2H]` (centres unmarked) [P-0606] are less than 10 µM and less than 1 µM. `[2H]c1c([2H])c([2H])c(C([2H])(n2cc(-c3ccc(C(=O)O)cc3)c3ncc(-c4c(C)noc4C)cc32)C([2H])([2H])[2H])c([2H])c1[2H]` (centres unmarked) [P-0607, 4-[6-(3,5-dimethylisoxazol-4-yl)-1-[1,2,2,2-tetradeuterio-1-(2,3,4,5,6-pentadeuteriophenyl)ethyl]pyrrolo[3,2-b]pyridin-3-yl]benzoic acid]: the IC50 with bromodomain (setting [1]) is less than 10 µM; in the assay with MV-4-11 cells (setting [4]), less than 1 µM. On to `Cc1noc(C)c1-c1cnc2c(-c3ccc(C(F)F)cc3)cn(CC3CCC(F)(F)CC3)c2c1` [P-0608, 4-[1-[(4,4-difluorocyclohexyl)methyl]-3-[4-(difluoromethyl)phenyl]pyrrolo[3,2-b]pyridin-6-yl]-3,5-dimethyl-isoxazole], for which the IC50 with bromodomain (setting [1]) is less than 10 µM; in the assay with MV-4-11 cells (setting [4]) it was less than 1 µM. Turning to `Cc1ccc(-c2cn([C@H](c3ccccn3)C3CCCCC3)c3cc(-c4c(C)noc4C)cnc23)cc1` [P-0818, 4-[1-[(S)-cyclohexyl(2-pyridyl)methyl]-3-(p-tolyl)pyrrolo[3,2-b]pyridin-6-yl]-3,5-dimethyl-isoxazole], the IC50 in the assay with bromodomain (setting [1]) is less than 10 µM.

For the compound `Cc1noc(C)c1-c1cnc2c(-c3ccc(C(=O)O)cc3)cn([C@H](c3ccccn3)C3CCCC3)c2c1` [P-0819, 4-[1-[(S)-cyclopentyl(2-pyridyl)methyl]-6-(3,5-dimethylisoxazol-4-yl)pyrrolo[3,2-b]pyridin-3-yl]benzoic acid], the IC50 in the assay on bromodomain (setting [1]) was less than 10 µM. For the compound `Cc1noc(C)c1-c1cnc2c(-c3ccc(C(=O)O)cc3)cn([C@@H](c3ccccn3)C3CCCC3)c2c1` [P-0820, 4-[1-[(R)-cyclopentyl(2-pyridyl)methyl]-6-(3,5-dimethylisoxazol-4-yl)pyrrolo[3,2-b]pyridin-3-yl]benzoic acid], in the assay with bromodomain (setting [1]), the IC50 is less than 10 µM. Take `Cc1ccc(-c2cn([C@@H](c3ccccn3)C3CCCC3)c3cc(-c4c(C)noc4C)cnc23)cc1` [P-0821, 4-[1-[(R)-cyclopentyl(2-pyridyl)methyl]-3-(p-tolyl)pyrrolo[3,2-b]pyridin-6-yl]-3,5-dimethyl-isoxazole]: the IC50 in the assay on bromodomain (setting [1]) is less than 10 µM.

As to `Cc1ccc(-c2cn([C@H](c3ccccn3)C3CCCC3)c3cc(-c4c(C)noc4C)cnc23)cc1` [P-0822, 4-[1-[(S)-cyclopentyl(2-pyridyl)methyl]-3-(p-tolyl)pyrrolo[3,2-b]pyridin-6-yl]-3,5-dimethyl-isoxazole], the IC50 with bromodomain (setting [1]) is less than 10 µM.
